These results are taken from patent US20180170904A1, “PYRIDIN-3-YL ACETIC ACID DERIVATIVES AS INHIBITORS OF HUMAN IMMUNODEFICIENCY VIRUS REPLICATION” (priority 2015, published 2018).

For this assay, the system named is NL-RLuc virus (recombinant NL4-3 proviral clone with Renilla Luciferase gene). Put plainly: Inhibition of HIV replication (NL-RLuc reporter virus in MT-2 cells). The format is cell-based. The following applies: Renilla, NL43, 120 h. The text has this: Inhibition of HIV replication: A recombinant NL-RLuc proviral clone was constructed in which a section of the nef gene from NL4-3 was replaced with the Renilla Luciferase gene. This virus is fully infectious and can undergo multiple cycles of replication in cell culture. In addition, the luciferous reporter provides a simple and easy method for quantitating the extent of virus growth and consequently, the antiviral activity of test compounds. The plasmid pNLRLuc contains the proviral NL-Rluc DNA cloned into pUC18 at the PvuII site. The NL-RLuc virus was prepared by transfection of 293T cells with the plasmid pNLRLuc. Transfections were performed using the LipofectAMINE PLUS kit from Invitrogen (Carlsbad, Calif.) according to the manufacturer and the virus generated was titered in MT-2 cells. For susceptibility analyses, the titrated virus was used to infect MT-2 cells in the presence of compound, and after 5 days of incubation, cells were processed and quantitated for virus growth by the amount of expressed luciferase. Assay media was RPMI 1640 supplemented with 10% heat inactivated fetal bovine serum (FBS), 100 units/ml penicillin G/100 units/ml streptomycin, 10 mM HEPES buffer pH 7.55 and 2 mM L-glutamine. The results from at least 2 experiments were used to calculate the EC50 values. Luciferase was quantitated using the Dual Luciferase kit from Promega (Madison, Wis.). Susceptibility of viruses to compounds was determined by incubation in the presence of serial dilutions of the compound. The 50% effective concentration (EC50) was calculated by using the exponential form of the median effect equation where (Fa)=1/[1+(ED50/drug conc.)^m] (Johnson V A, Byington R T. Infectivity Assay. In Techniques in HIV Research. ed. Aldovini A, Walker B D. 71-76. New York: Stockton Press.1990). Activity equal to A refers to a compound having an EC50≤100 nM, while B and C denote compounds having an EC50 between 100 nM and 1 uM (B) or >1 uM (C).

Read-outs that look alike come from different tables or passages of the source.

Consider `Cc1cc(CNC(=O)c2ccc(-c3c(C)nc(C)c([C@H](OC(C)(C)C)C(=O)O)c3N3CCC(C)(C)CC3)cc2)ccc1F` [Example 1, (S)-2-(tert-Butoxy)-2-(4-(4,4-dimethylpiperidin-1-yl)-5-(4-((4-fluoro-3-methylbenzyl)carbamoyl)phenyl)-2,6-dimethylpyridin-3-yl)acetic acid], for which the EC50 was less than 0.1 µM (read-out: Activity) and 0.007 µM (read-out: EC50 μM).

On to `Cc1nc(C)c([C@H](OC(C)(C)C)C(=O)O)c(N2CCC(C)(C)CC2)c1-c1ccc(C(=O)NCCc2ccc(F)cc2)cc1` [Example 2, (S)-2-(tert-Butoxy)-2-(4-(4,4-dimethylpiperidin-1-yl)-5-(4-((4-fluorophenethyl)carbamoyl)phenyl)-2,6-dimethylpyridin-3-yl)acetic acid], for which the EC50 (read-out: Activity) is less than 0.1 µM.

In the case of `Cc1nc(C)c([C@H](OC(C)(C)C)C(=O)O)c(N2CCC(C)(C)CC2)c1-c1ccc(-c2ncc(Cc3ccc(F)cc3)s2)cc1` [Example 3, (S)-2-(tert-Butoxy)-2-(4-(4,4-dimethylpiperidin-1-yl)-5-(4-(5-(4-fluorobenzyl)thiazol-2-yl)phenyl)-2,6-dimethylpyridin-3-yl)acetic acid], where the note is “read-out: Activity”, the EC50 is less than 0.1 µM.

For `Cc1nc(C)c([C@H](OC(C)(C)C)C(=O)O)c(N2CCC(C)(C)CC2)c1-c1ccc(-c2ncc(Cc3ccc(F)cc3)o2)cc1` [Example 4, (S)-2-(tert-Butoxy)-2-(4-(4,4-dimethylpiperidin-1-yl)-5-(4-(5-(4-fluorobenzyl)oxazol-2-yl)phenyl)-2,6-dimethylpyridin-3-yl)acetic acid], the EC50 (read-out: Activity) was less than 0.1 µM.

Turning to `Cc1nc(C)c([C@H](OC(C)(C)C)C(=O)O)c(N2CCC(C)(C)CC2)c1-c1ccc(-c2ncc(-c3ccc(F)cc3)o2)cc1` [Example 5, (S)-2-(tert-Butoxy)-2-(4-(4,4-dimethylpiperidin-1-yl)-5-(4-(5-(4-fluorophenyl)oxazol-2-yl)phenyl)-2,6-dimethylpyridin-3-yl)acetic acid], the EC50 (read-out: Activity) was less than 0.1 µM.

On to `Cc1nc(C)c([C@H](OC(C)(C)C)C(=O)O)c(N2CCC(C)(C)CC2)c1-c1ccc(-c2ncc(-c3ccc(F)cc3)s2)cc1` [Example 6, (S)-2-(tert-Butoxy)-2-(4-(4,4-dimethylpiperidin-1-yl)-5-(4-(5-(4-fluorophenyl)thiazol-2-yl)phenyl)-2,6-dimethylpyridin-3-yl)acetic acid], for which the EC50 (read-out: Activity) is less than 0.1 µM.

Regarding `Cc1nc(C)c([C@H](OC(C)(C)C)C(=O)O)c(N2CCC(C)(C)CC2)c1-c1ccccc1` [Example 7, (S)-2-(tert-Butoxy)-2-(4-(4,4-dimethylpiperidin-1-yl)-2,6-dimethyl-5-phenylpyridin-3-yl)acetic acid], the EC50 (read-out: Activity) is less than 0.1 µM.

As to `Cc1nc(C)c([C@H](OC(C)(C)C)C(=O)O)c(N2CCC(C)(C)CC2)c1-c1ccc(-c2ccccc2)cc1` [Example 8, (S)-2-(5-([1,1′-Biphenyl]-4-yl)-4-(4,4-dimethylpiperidin-1-yl)-2,6-dimethylpyridin-3-yl)-2-(tert-butoxy)acetic acid], the EC50 by setting is: (read-out: Activity) less than 0.1 µM; (read-out: EC50 μM) 0.031 µM.

For the compound `CCCOc1ccc(-c2ccc(-c3c(C)nc(C)c([C@H](OC(C)(C)C)C(=O)O)c3N3CCC(C)(C)CC3)cc2)cc1` [Example 9, (S)-2-(tert-Butoxy)-2-(4-(4,4-dimethylpiperidin-1-yl)-2,6-dimethyl-5-(4′-propoxy-[1,1′-biphenyl]-4-yl)pyridin-3-yl)acetic acid], the EC50 (read-out: Activity) is less than 0.1 µM.

`Cc1nc(C)c([C@H](OC(C)(C)C)C(=O)O)c(N2CCC(C)(C)CC2)c1-c1ccc(-c2ccc(OC(C)C)cc2)cc1` [Example 10, (S)-2-(tert-Butoxy)-2-(4-(4,4-dimethylpiperidin-1-yl)-5-(4′-isopropoxy-[1,1′-biphenyl]-4-yl)-2,6-dimethylpyridin-3-yl)acetic acid]: where the note is “read-out: Activity”, the EC50 was less than 0.1 µM.

With `Cc1nc(C)c([C@H](OC(C)(C)C)C(=O)O)c(N2CCC(C)(C)CC2)c1-c1ccc(-c2ccc(Cl)cc2)cc1` [Example 11, (S)-2-(tert-Butoxy)-2-(5-(4′-chloro-[1,1′-biphenyl]-4-yl)-4-(4,4-dimethylpiperidin-1-yl)-2,6-dimethylpyridin-3-yl)acetic acid], the EC50 was 0.1 to 1 µM (read-out: Activity) and 0.135 µM (read-out: EC50 μM).

`CCc1ccc(-c2ccc(-c3c(C)nc(C)c([C@H](OC(C)(C)C)C(=O)O)c3N3CCC(C)(C)CC3)cc2)cc1` [Example 12, (S)-2-(tert-Butoxy)-2-(4-(4,4-dimethylpiperidin-1-yl)-5-(4′-ethyl-[1,1′-biphenyl]-4-yl)-2,6-dimethylpyridin-3-yl)acetic acid]: the EC50 (read-out: Activity) lay within 0.1 to 1 µM.

As for `Cc1nc(C)c([C@H](OC(C)(C)C)C(=O)O)c(N2CCC(C)(C)CC2)c1-c1ccc(-c2ccccn2)cc1` [Example 13, (S)-2-(tert-butoxy)-2-(4-(4,4-dimethylpiperidin-1-yl)-2,6-dimethyl-5-(4-(pyridin-2-yl)phenyl)pyridin-3-yl)acetic acid], the EC50 (read-out: Activity) was less than 0.1 µM.

Turning to `Cc1nc(C)c([C@H](OC(C)(C)C)C(=O)O)c(N2CCC(C)(C)CC2)c1-c1ccc(-c2ccccc2)c(F)c1` [Example 14, (S)-2-(tert-Butoxy)-2-(4-(4,4-dimethylpiperidin-1-yl)-5-(2-fluoro-[1,1′-biphenyl]-4-yl)-2,6-dimethylpyridin-3-yl)acetic acid], the EC50 (read-out: Activity) was less than 0.1 µM.

In the case of `Cc1nc(C)c([C@H](OC(C)(C)C)C(=O)O)c(N2CCC(C)(C)CC2)c1-c1ccc(Cc2ccccc2)cc1` [Example 15, (S)-2-(5-(4-Benzylphenyl)-4-(4,4-dimethylpiperidin-1-yl)-2,6-dimethylpyridin-3-yl)-2-(tert-butoxy)acetic acid], the EC50 (read-out: Activity) is less than 0.1 µM.

As for `COc1ccc(-c2ccc(-c3c(C)nc(C)c([C@H](OC(C)(C)C)C(=O)O)c3N3CCC(C)(C)CC3)cc2)cc1` [Example 16, (S)-2-(tert-Butoxy)-2-(4-(4,4-dimethylpiperidin-1-yl)-5-(4′-methoxy-[1,1′-biphenyl]-4-yl)-2,6-dimethylpyridin-3-yl)acetic acid], the EC50 (read-out: Activity) is less than 0.1 µM.

On to `Cc1cccc(-c2ccc(-c3c(C)nc(C)c([C@H](OC(C)(C)C)C(=O)O)c3N3CCC(C)(C)CC3)cc2)c1` [Example 17, (S)-2-(tert-Butoxy)-2-(4-(4,4-dimethylpiperidin-1-yl)-2,6-dimethyl-5-(3′-methyl-[1,1′-biphenyl]-4-yl)pyridin-3-yl)acetic acid], for which the EC50 is less than 0.1 µM (read-out: Activity) and 0.053 µM (read-out: EC50 μM).

Turning to `Cc1nc(C)c([C@H](OC(C)(C)C)C(=O)O)c(N2CCC(C)(C)CC2)c1-c1ccc(-c2cccc3ccccc23)cc1` [Example 18, (S)-2-(tert-Butoxy)-2-(4-(4,4-dimethylpiperidin-1-yl)-2,6-dimethyl-5-(4-(naphthalen-1-yl)phenyl)pyridin-3-yl)acetic acid], the EC50 (read-out: Activity) is less than 0.1 µM.

`Cc1ccc(-c2c(C)nc(C)c([C@H](OC(C)(C)C)C(=O)O)c2N2CCC(C)(C)CC2)cc1F` [Example 19, (S)-2-(tert-Butoxy)-2-(4-(4,4-dimethylpiperidin-1-yl)-5-(3-fluoro-4-methylphenyl)-2,6-dimethylpyridin-3-yl)acetic acid]: the EC50 (read-out: Activity) was less than 0.1 µM.

For `Cc1nc(C)c([C@H](OC(C)(C)C)C(=O)O)c(N2CCC(C)(C)CC2)c1-c1ccc(CC(C)C)cc1` [Example 20, (S)-2-(tert-Butoxy)-2-(4-(4,4-dimethylpiperidin-1-yl)-5-(4-isobutylphenyl)-2,6-dimethylpyridin-3-yl)acetic acid], the EC50 runs as follows: (read-out: Activity) less than 0.1 µM; (read-out: EC50 μM) 0.161 µM.
